According to patent publication US12364702B2, “Highly active sting protein agonist compound” (ADLAI NORTYE BIOPHARMA CO., LTD., priority 2018, dated 2025):

Legend:
Format in all cases: cell-based
[1] = biological target: T1, STING HAQ variant (Homo sapiens, UniProt Q86WV6, G230A/R293Q/R71H); test: SEAP reporter assay in HEK-Blue ISG KO-STING cells transfected with STING HAQ variant (Method 2); parameters: key: ratio of compound SEAP signal to 0.5% DMSO; settings: 0.0625 ng STING vector (HAQ variant), compound 5 uM, 24 h, SEAP signal vs 0.5% DMSO
T1 construct: host or cells: HEK-Blue ISG KO-STING cells (Invivogen, hkb-kostg)
T1 sequence (Q86WV6 whole entry R71H/G230A/R293Q): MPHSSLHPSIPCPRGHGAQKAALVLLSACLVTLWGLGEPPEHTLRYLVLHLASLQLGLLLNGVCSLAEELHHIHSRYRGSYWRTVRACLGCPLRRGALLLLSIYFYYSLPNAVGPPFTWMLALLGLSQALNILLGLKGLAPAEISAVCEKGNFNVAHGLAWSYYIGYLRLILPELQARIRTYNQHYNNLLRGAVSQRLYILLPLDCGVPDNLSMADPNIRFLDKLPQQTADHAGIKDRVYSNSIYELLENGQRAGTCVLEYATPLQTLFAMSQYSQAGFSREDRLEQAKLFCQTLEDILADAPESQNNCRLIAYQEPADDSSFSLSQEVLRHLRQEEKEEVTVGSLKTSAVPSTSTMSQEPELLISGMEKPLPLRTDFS
From the text: (§1) Activation of STING can be determined using a SEAP reporter assay in HEK-Blue™ ISG KO-STING cells (Invivogen, cat #hkb-kostg) transfected with plasmids expressing STING variants (WT & HAQ) (referred to WO2017/175147A1). STING variants (WT & HAQ) vector were constructed based on STING-232H vector (Origene, RC208418). GFP vector (VT2069) was bought from Youbio. The detailed protocol as follows: HEK-Blue™ ISG KO-STING cells were harvest and seeding into 96 well plate and the final cell number was 0.8×10^5 cells/well. Transfections were prepared using Lipofectamine 2000 (Invitrogen, Cat #11668-027) following the manufacturer's instructions (Lipo2000/DNA=1/10), 20 ul of transfection suspension containing 1 ng (WT variant) or 0.0625 ng (HAQ variant) STING vector was added to cell culture plate and incubated at 37° C., 5% CO2 for 24 hours. After 24 hours incubation, compounds were added at proper concentration, the final DMSO concentration was 0.5%. After 24 h incubation, the supernatant was collected to detect SEAP signal using Great EscAPe SEAP chemiluminescence KIT (Clontech, cat #631738) and cells were collected to detect cell viability using CellTiter-Glo Luminescent Cell Viability Assay (Promega, cat #G7573) following the manufacturer's instructions. The data were described by the ratio of the stimulating signal of compounds to 0.5% DMSO.

[2] = biological target: T2, STING WT variant (Homo sapiens, UniProt Q86WV6); test: SEAP reporter assay in HEK-Blue ISG KO-STING cells transfected with STING WT variant (Method 2); parameters: key: ratio of compound SEAP signal to 0.5% DMSO; settings: 1 ng STING vector (WT variant), compound 2.5 uM, 24 h, SEAP signal vs 0.5% DMSO
T2 construct: host or cells: HEK-Blue ISG KO-STING cells (Invivogen, hkb-kostg)
From the text: as §1

[3] = biological target: STING (Homo sapiens, UniProt Q86WV6); test: IFN-β secretion from THP1 by STING activation (hIFNβ ELISA); settings: THP1 cells, 24 h incubation, IFN-β in supernatant, top dose set according to solubility; for EC50: read-out: hIFNβ ELISA (EC50)
Chain of STING (Q86WV6 whole entry): as the sequence (Q86WV6 whole entry R71H/G230A/R293Q) above, with H71R, A230G, Q293R counted along it
How it was run: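 THP1 cells (2×10^6 cells/ml) exposed 24 h at 37° C, 5% CO2 to 8-point, 3-fold compound dilutions, 0.2% DMSO final, top dose set by solubility. Secreted IFN-β in supernatant measured by human IFNβ ELISA; EC50 from curve fitting.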

| SMILES | Fold change related to DMSO control HAQ [1] | Fold change related to DMSO control WT [2] | EC50 [3] [nM] | hIFNβ ELISA (EC50, μM) [3] |
| --- | --- | --- | --- | --- |
| CCn1nc(C)cc1C(=O)Nc1nc2cc(C(N)=O)cc(OCCCNC(=O)CN3CCC(OC)CC3)c2n1CCC[C@H]1COc2cc(C(N)=O)cc3nc(NC(=O)c4cc(C)nn4CC)n1c23 [Example 42, (S)-3-(3-(5-carbamoyl-2-(1-ethyl-3-methyl-1H-pyrazole-5-carboxamido)-7-(3-(2-(4-methoxypiperidin-1-yl)acetamido)propoxy)-1H-benzo[d]imidazol-1-yl)propyl)-2-(1-ethyl-3-methyl-1H-pyrazole-5-carboxamido)-3,4-dihydro-5-oxa-1,2a-diazaacenaphthylene-7-carboxamide] | 17.42 | 10.04 | 2200 |  |
| CCn1nc(C)cc1C(=O)Nc1nc2cc(C(N)=O)cc(OCCCNS(=O)(=O)C3CCNCC3)c2n1CCC[C@H]1COc2cc(C(N)=O)cc3nc(NC(=O)c4cc(C)nn4CC)n1c23 [Example 45, (S)-3-(3-(5-carbamoyl-2-(1-ethyl-3-methyl-1H-pyrazole-5-carboxamido)-7-(3-(piperidine-4-sulfonamido)propoxy)-1H-benzo[d]imidazol-1-yl)propyl)-2-(1-ethyl-3-methyl-1H-pyrazole-5-carboxamido)-3,4-dihydro-5-oxa-1,2a-diazaacenaphthylene-7-carboxamide] | 21.63 | 4.43 | > 50000 |  |
| CCn1nc(C)cc1C(=O)Nc1nc2cc(C(N)=O)cc(OCCCNC(=O)CN3CCC(O)CC3)c2n1CCC[C@H]1COc2cc(C(N)=O)cc3nc(NC(=O)c4cc(C)nn4CC)n1c23 [Example 40, (S)-3-(3-(5-carbamoyl-2-(1-ethyl-3-methyl-1H-pyrazole-5-carboxamido)-7-(3-(2-(4-hydroxypiperidin-1-yl)acetamido)propoxy)-1H-benzo[d]imidazol-1-yl)propyl)-2-(1-ethyl-3-methyl-1H-pyrazole-5-carboxamido)-3,4-dihydro-5-oxa-1,2a-diazaacenaphthylene-7-carboxamide] | 13.94 | 7.82 | 4700 |  |
| CCn1nc(C)cc1C(=O)Nc1nc2cc(C#N)cc(OCCCNC(=O)CN3CCOCC3)c2n1CCC[C@H]1COc2cc(C#N)cc3nc(NC(=O)c4cc(C)nn4CC)n1c23 [Example 48, (S)—N-(5-cyano-1-(3-(7-cyano-2-(1-ethyl-3-methyl-1H-pyrazole-5-carboxamido)-3,4-dihydro-5-oxa-1,2a-diazaacenaphthylen-3-yl)propyl)-7-(3-(2-morpholinoacetamido)propoxy)-1H-benzo[d]imidazol-2-yl)-1-ethyl-3-methyl-1H-pyrazole-5-carboxamide] | 7.94 | 5.70 |  | inactive |
| CCn1nc(C)cc1C(=O)Nc1nc2cc(C(N)=O)cc(OCCCNS(=O)(=O)CCN)c2n1CCC[C@H]1COc2cc(C(N)=O)cc3nc(NC(=O)c4cc(C)nn4CC)n1c23 [Example 44, (S)-3-(3-(7-(3-(2-aminoethylsulfonamido)propoxy)-5-carbamoyl-2-(1-ethyl-3-methyl-1H-pyrazole-5-carboxamido)-1H-benzo[d]imidazol-1-yl)propyl)-2-(1-ethyl-3-methyl-1H-pyrazole-5-carboxamido)-3,4-dihydro-5-oxa-1,2a-diazaacenaphthylene-7-carboxamide] | 31.46 | 6.47 | > 39700 |  |
| CCn1nc(C)cc1C(=O)Nc1nc2cc(C(N)=O)cc(OCCCO)c2n1CCC[C@H]1CN(C)c2cc(C(N)=O)cc3nc(NC(=O)c4cc(C)nn4CC)n1c23 [Example 57, (S)-4-(3-(5-carbamoyl-2-(1-ethyl-3-methyl-1H-pyrazole-5-carboxamido)-7-(3-hydroxypropoxy)-1H-benzo[d]imidazol-1-yl)propyl)-2-(1-ethyl-3-methyl-1H-pyrazole-5-carboxamido)-6-methyl-5,6-dihydro-4H-imidazo[1,5,4-de]quinoxaline-8-carboxamide] | 23.35 | 11.24 | 2600 |  |
| CCn1nc(C)c(F)c1C(=O)Nc1nc2cc(C(N)=O)cc(OCCCOC)c2n1CCC[C@H]1COc2cc(C(N)=O)cc3nc(NC(=O)c4c(F)c(C)nn4CC)n1c23 [Example 49, (S)-3-(3-(5-carbamoyl-2-(1-ethyl-4-fluoro-3-methyl-1H-pyrazole-5-carboxamido)-7-(3-methoxypropoxy)-1H-benzo[d]imidazol-1-yl)propyl)-2-(1-ethyl-4-fluoro-3-methyl-1H-pyrazole-5-carboxamido)-3,4-dihydro-5-oxa-1,2a-diazaacenaphthylene-7-carboxamide] | 27.58 | 11.17 | 500 |  |

The next lines start with the values.

| Fold change related to DMSO control HAQ [1] | Fold change related to DMSO control WT [2] | EC50 [3] [nM] | hIFNβ ELISA (EC50, μM) [3] | SMILES |
| --- | --- | --- | --- | --- |
| 32.38 | 8.92 | 1600 |  | CCn1nc(C)cc1C(=O)Nc1nc2cc(C(N)=O)cc(OCCCOC)c2n1CCC[C@H]1COc2cc(C(N)=O)cc3nc(NC(=O)c4c(F)c(C)nn4CC)n1c23 [Example 50, (S)-3-(3-(5-carbamoyl-2-(1-ethyl-3-methyl-1H-pyrazole-5-carboxamido)-7-(3-methoxypropoxy)-1H-benzo[d]imidazol-1-yl)propyl)-2-(1-ethyl-4-fluoro-3-methyl-1H-pyrazole-5-carboxamido)-3,4-dihydro-5-oxa-1,2a-diazaacenaphthylene-7-carboxamide] |
| 16.45 | 11.39 | 2200 |  | CCn1nc(C)cc1C(=O)Nc1nc2cc(C(N)=O)cc(OCCCNC(=O)CN3CC[C@@H](OC)C3)c2n1CCC[C@H]1COc2cc(C(N)=O)cc3nc(NC(=O)c4cc(C)nn4CC)n1c23 [Example 39, (S)-3-(3-(5-carbamoyl-2-(1-ethyl-3-methyl-1H-pyrazole-5-carboxamido)-7-(3-(2-((R)-3-methoxypyrrolidin-1-yl)acetamido)propoxy)-1H-benzo[d]imidazol-1-yl)propyl)-2-(1-ethyl-3-methyl-1H-pyrazole-5-carboxamido)-3,4-dihydro-5-oxa-1,2a-diazaacenaphthylene-7-carboxamide] |
| 19.74 | 13.02 | 5200 |  | CCn1nc(C)cc1C(=O)Nc1nc2cc(C(N)=O)cc(OCCCNC(=O)CN(C)C)c2n1CCC[C@H]1COc2cc(C(N)=O)cc3nc(NC(=O)c4c(Cl)c(C)nn4CC)n1c23 [Example 54, (S)-3-(3-(5-carbamoyl-7-(3-(2-(dimethylamino)acetamido)propoxy)-2-(1-ethyl-3-methyl-1H-pyrazole-5-carboxamido)-1H-benzo[d]imidazol-1-yl)propyl)-2-(4-chloro-1-ethyl-3-methyl-1H-pyrazole-5-carboxamido)-3,4-dihydro-5-oxa-1,2a-diazaacenaphthylene-7-carboxamide] |
| 17.39 | 10.85 | 1200 |  | CCn1nc(C)cc1C(=O)Nc1nc2cc(C(N)=O)cc(OCCCNC(=O)CN3CCOCC3)c2n1CCC[C@H]1COc2cc(C(N)=O)cc3nc(NC(=O)c4c(F)c(C)nn4CC)n1c23 [Example 53, (S)-3-(3-(5-carbamoyl-2-(1-ethyl-3-methyl-1H-pyrazole-5-carboxamido)-7-(3-(2-morpholinoacetamido)propoxy)-1H-benzo[d]imidazol-1-yl)propyl)-2-(1-ethyl-4-fluoro-3-methyl-1H-pyrazole-5-carboxamido)-3,4-dihydro-5-oxa-1,2a-diazaacenaphthylene-7-carboxamide] |
| 18.32 | 11.79 | > 50000 |  | CCn1nc(C)cc1C(=O)Nc1nc2cc(C(N)=O)cc(OCCCNC(=O)CN(C)C)c2n1CCC[C@H]1COc2cc(C(N)=O)cc3nc(NC(=O)c4c(F)c(C)nn4CC)n1c23 [Example 52, (S)-3-(3-(5-carbamoyl-7-(3-(2-(dimethylamino)acetamido)propoxy)-2-(1-ethyl-3-methyl-1H-pyrazole-5-carboxamido)-1H-benzo[d]imidazol-1-yl)propyl)-2-(1-ethyl-4-fluoro-3-methyl-1H-pyrazole-5-carboxamido)-3,4-dihydro-5-oxa-1,2a-diazaacenaphthylene-7-carboxamide] |
